US12458678B2, “Composition for preventing or treating prostatic hyperplasia comprising mixed extracts of Curcumae radix and Syzygii flos” (UNIVERSITY-INDUSTRY COOPERATION GROUP OF KYUNG HEE …, priority 2019, dated 2025)

Tests used:
[1] = tested on: benign prostatic hyperplasia animal model; experiment: Prostate tissue weight and prostate index in TP-induced benign prostatic hyperplasia rats; format: in vivo, Sprague-Dawley (SD) rats; details: FIG. 2 upper
Experimental: For the benign prostatic hyperplasia animal model, 12-week-old male Sprague-Dawley (SD) rats (200±20 g) were purchased and tested from Daehan Biolink (Eumseong, Korea). After an acclimatization period for 1 week before the start of the experiment, feed and water were freely ingested for 6 weeks during the experiment. In an environment in which the light was controlled at intervals of 12 hours, the indoor temperature was 23±2° C., and the humidity was maintained at 70%. To induce benign prostatic hyperplasia, rats were divided into four groups, and six animals were randomly assigned to each group. Three groups among them were injected with TP (5 mg/kg/day) into the groin for 4 weeks, and one group, a normal control group, was injected with the same amount of ethanol. After induction of benign prostatic hyperplasia for 4 weeks, the experiment was performed by various treatment as follows: (i) a normal control group injected with ethanol for an additional four weeks (NC group); (ii) a disease control group injected with TP for an additional four weeks (benign prostatic hyperplasia, BPH group); […] In addition, in order to correct the difference in tissue weight according to body weight, the prostate index was calculated by dividing the weight of the prostate in mg with respect to 100 g of body weight.

[2] = tested on: prostate epithelial cells; experiment: H&E staining of prostate tissue, prostate epithelial cell thickness; format: in vivo, Sprague-Dawley (SD) rats; details: TP-induced BPH rats, FIG. 3B
Experimental: To induce benign prostatic hyperplasia, rats were divided into four groups, and six animals were randomly assigned to each group. Three groups among them were injected with TP (5 mg/kg/day) into the groin for 4 weeks, and one group, a normal control group, was injected with the same amount of ethanol. After induction of benign prostatic hyperplasia for 4 weeks, the experiment was performed by various treatment as follows: (i) a normal control group injected with ethanol for an additional four weeks (NC group); (ii) a disease control group injected with TP for an additional four weeks (benign prostatic hyperplasia, BPH group); […] Prostate samples fixed in paraffin were cut to a thickness of 4 μm. […] Tissue sections were treated in 150 μl of 0.1% trypsin working solution (composition: trypsin 0.4 ml, calcium 0.01 g, chloride 0.01 g in D.W. 7 ml) for 15 minutes, and then blocked using fetal bovine serum (FBS). For H&E staining, the cut tissue was immersed in hematoxylin solution for 5 minutes, distilled water for 5 minutes, and eosin solution for 30 seconds, and then dried and fixed. The slides were observed using an Olympus IX71 Research Inverted Phase microscope (Olympus Co., Tokyo, Japan), and the density was measured using ImageJ 1.47v software (National Institute of Health, MD, USA).

[3] = tested on: dihydrotestosterone (DHT); experiment: Dihydrotestosterone (DHT) assay by ELISA in BPH rats; format: in vivo, Sprague-Dawley (SD) rats; details: Example 11.1, FIG. 11; comparison with finasteride
[4] = tested on: prostate specific antigen (PSA); experiment: Prostate specific antigen expression in prostate tissue, Western blot; format: in vivo, Sprague-Dawley (SD) rats; details: Example 11.2, FIG. 12; comparison with finasteride
[5] = tested on: proliferating cell nuclear antigen (PCNA); experiment: PCNA expression in prostate tissue, Western blot; format: in vivo, Sprague-Dawley (SD) rats; details: Example 11.4, FIG. 14; comparison with finasteride
[6] = tested on: cyclin B1; experiment: Cyclin B1 expression in prostate tissue, Western blot; format: in vivo, Sprague-Dawley (SD) rats; details: Example 11.5, FIG. 15; comparison with finasteride
[7] = tested on: sperm count in the epididymis; experiment: Analysis of sperm count in epididymis; format: in vivo, SD rats; details: cauda epididymis of BPH rats; FIG. 17
Experimental: After excision of cauda epididymis from […] SD rats, it was cut into small pieces twice. Then, they were immersed in 4 ml of PBS for 1 hour to cause the sperm to spread into the PBS solution. After mixing PBS containing sperm with the same amount of methanol, they were observed using a hematocytometer and an Olympus IX71 Research Inverted Phase microscope (Olympus Co., Tokyo, Japan).
In order to check the sperm count, after excision of the cauda epididymis of the SD rat group used in the above-mentioned Examples, it was cut into small pieces twice. Then, they were placed in 4 ml of PBS for 1 hour to allow the sperm to spread into the PBS solution. After mixing PBS containing sperm with the same amount of methanol, they were observed using a hematocytometer and an Olympus IX71 Research Inverted Phase microscope.

For `CC(C)(C)NC(=O)[C@H]1CC[C@H]2[C@@H]3CC[C@H]4NC(=O)C=C[C@]4(C)[C@H]3CC[C@]12C` [finasteride], the average prostate weight ([1]; TP-induced BPH rats, UM-002 50 mg/kg/day or finasteride 1 mg/kg/day for 4 weeks, BPH group 1.73 g, NC group 0.73 g) was 0.93 g, the “prostate weight lower than that of the BPH group” value ([1]; vs BPH group 1.73 g) was 54% and the “thickness of prostate epithelial cells” value ([2]; BPH group 12.06 μm, NC group 9.68 μm) was 9.38 μm. For the same compound, the “prostate epithelial cell thickness reduced compared to the BPH group” value [2] was 22%, the “DHT expression inhibited based on the BPH group” value [3] was 77% and the “PSA expression inhibited based on the BPH group” value [4] was 55%. For the same compound, the “PCNA expression inhibited based on the BPH group” value [5] was 45%, the “cyclin B1 expression inhibited based on the BPH group” value [6] was 41% and the “sperm count compared to the NC group” value [7] was 56%.
